Reference: article PMC10343501 (Molecules, 2023)

How the values were obtained:
Type in all cases: cell-based
Details in all cases: read-out: % inhibition at 100 nM
hERG potassium channel [1] = target: T1, hERG potassium channel (Homo sapiens, UniProt Q12809, Y652A); assay: whole-cell patch clamp, transfected HEK-293 cells, […], RT
T1 construct: gene KCNH2

hERG potassium channel [2] = target: T2, hERG potassium channel (Homo sapiens, UniProt Q12809, S624A); assay: as above
T2 construct: gene KCNH2

hERG potassium channel [3] = target: T3, hERG potassium channel (Homo sapiens, UniProt Q12809); assay: whole-cell patch clamp, HEK-293 cells, […] inhibition at […] (RT), […] (PT)
T3 construct: gene KCNH2
T3 sequence (Q12809 whole entry): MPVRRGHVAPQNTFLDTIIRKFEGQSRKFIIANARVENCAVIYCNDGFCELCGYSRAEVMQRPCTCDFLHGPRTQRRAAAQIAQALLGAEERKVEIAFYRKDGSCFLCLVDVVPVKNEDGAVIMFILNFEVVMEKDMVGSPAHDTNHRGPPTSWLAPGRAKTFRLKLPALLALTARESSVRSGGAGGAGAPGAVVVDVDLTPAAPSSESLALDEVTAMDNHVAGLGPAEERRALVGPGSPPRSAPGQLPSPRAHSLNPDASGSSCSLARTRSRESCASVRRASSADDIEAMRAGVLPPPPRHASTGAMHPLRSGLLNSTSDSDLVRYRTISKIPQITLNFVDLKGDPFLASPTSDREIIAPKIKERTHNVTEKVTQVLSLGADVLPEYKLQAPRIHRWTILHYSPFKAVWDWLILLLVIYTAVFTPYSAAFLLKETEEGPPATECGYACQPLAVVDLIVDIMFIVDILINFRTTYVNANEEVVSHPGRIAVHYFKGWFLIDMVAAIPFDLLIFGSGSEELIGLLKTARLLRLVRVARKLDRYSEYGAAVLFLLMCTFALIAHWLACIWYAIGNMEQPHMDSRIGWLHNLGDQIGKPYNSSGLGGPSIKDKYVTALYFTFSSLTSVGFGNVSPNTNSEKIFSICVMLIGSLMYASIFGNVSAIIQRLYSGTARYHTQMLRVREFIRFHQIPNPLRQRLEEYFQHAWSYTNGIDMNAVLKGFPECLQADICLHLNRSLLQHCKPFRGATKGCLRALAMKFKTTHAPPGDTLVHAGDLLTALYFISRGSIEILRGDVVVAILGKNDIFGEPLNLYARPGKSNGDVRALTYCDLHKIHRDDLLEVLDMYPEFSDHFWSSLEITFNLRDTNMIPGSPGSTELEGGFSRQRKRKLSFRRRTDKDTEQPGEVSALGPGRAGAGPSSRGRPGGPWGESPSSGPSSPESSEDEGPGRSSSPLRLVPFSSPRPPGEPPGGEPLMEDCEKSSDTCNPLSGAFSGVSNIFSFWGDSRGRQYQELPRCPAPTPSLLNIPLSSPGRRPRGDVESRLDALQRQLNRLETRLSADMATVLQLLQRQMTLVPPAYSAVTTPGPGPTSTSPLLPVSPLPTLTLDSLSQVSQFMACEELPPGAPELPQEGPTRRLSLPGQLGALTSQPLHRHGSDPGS

T1 sequence (Q12809 whole entry Y652A): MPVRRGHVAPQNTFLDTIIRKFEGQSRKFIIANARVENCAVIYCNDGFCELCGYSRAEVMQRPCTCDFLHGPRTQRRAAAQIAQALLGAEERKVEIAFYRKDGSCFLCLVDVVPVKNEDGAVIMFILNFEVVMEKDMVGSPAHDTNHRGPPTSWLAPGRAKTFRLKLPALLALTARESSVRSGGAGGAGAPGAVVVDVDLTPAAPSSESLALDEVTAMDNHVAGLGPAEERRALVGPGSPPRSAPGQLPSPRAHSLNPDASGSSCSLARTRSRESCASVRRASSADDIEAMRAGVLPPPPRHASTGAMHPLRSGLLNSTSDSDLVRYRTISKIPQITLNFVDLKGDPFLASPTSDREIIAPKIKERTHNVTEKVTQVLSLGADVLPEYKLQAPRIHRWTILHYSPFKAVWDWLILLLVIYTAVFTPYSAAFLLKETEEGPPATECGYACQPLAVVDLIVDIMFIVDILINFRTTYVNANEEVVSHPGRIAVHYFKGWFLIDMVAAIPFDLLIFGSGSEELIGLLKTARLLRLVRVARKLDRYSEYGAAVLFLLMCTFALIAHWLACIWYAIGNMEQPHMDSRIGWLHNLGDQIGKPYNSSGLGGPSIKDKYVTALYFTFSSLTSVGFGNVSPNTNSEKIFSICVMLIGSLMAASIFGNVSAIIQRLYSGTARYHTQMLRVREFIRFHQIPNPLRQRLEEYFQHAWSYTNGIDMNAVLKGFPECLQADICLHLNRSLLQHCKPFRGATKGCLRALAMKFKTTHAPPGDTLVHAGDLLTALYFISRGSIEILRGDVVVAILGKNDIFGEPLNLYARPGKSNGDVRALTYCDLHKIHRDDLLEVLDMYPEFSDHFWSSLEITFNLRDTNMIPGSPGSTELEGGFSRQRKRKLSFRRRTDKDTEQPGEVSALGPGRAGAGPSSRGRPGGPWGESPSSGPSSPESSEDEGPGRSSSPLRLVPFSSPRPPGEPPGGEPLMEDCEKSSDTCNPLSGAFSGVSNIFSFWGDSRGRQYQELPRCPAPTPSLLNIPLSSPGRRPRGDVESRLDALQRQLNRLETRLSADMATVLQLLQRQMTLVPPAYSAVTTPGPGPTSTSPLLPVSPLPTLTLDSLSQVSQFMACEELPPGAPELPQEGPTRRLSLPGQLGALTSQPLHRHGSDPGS
T2 sequence (Q12809 whole entry S624A): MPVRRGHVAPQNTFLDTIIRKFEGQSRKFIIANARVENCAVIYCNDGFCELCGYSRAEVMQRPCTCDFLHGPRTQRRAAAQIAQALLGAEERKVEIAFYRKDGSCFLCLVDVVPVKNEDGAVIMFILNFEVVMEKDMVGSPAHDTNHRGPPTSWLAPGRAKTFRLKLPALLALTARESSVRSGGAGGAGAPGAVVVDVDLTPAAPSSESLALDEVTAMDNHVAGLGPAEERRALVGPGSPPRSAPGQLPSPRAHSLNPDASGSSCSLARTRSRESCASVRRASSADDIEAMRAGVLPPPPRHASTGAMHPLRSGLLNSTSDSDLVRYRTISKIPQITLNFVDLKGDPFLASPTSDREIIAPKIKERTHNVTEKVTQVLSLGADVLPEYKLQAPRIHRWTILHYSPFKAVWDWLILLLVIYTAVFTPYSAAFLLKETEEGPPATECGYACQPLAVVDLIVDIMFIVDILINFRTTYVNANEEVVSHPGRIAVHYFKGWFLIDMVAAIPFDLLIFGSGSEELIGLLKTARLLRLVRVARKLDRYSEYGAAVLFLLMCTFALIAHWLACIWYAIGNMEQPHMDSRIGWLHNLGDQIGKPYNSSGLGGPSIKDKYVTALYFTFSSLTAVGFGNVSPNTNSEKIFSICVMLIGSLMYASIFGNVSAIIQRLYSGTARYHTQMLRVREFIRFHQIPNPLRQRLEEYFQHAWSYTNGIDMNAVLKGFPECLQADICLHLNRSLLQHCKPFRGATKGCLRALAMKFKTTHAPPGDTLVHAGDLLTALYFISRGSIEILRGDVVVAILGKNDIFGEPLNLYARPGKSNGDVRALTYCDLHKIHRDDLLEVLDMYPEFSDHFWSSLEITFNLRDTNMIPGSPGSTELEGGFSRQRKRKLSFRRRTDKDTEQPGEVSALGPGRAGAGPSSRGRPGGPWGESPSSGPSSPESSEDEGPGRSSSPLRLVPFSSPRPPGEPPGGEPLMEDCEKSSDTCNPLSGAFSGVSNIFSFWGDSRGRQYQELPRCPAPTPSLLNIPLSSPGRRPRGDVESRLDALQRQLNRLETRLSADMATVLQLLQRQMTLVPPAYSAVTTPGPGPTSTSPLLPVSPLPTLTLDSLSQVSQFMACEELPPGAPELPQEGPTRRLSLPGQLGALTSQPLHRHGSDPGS

COc1cc(N)c(Cl)cc1C(=O)NC1CCN(CCCOc2ccc(F)cc2)CC1OC (stereo not drawn) [cisapride]
inhibition at 0.1 µM (hERG potassium channel [1]): 33.9% | inhibition at 0.1 µM (hERG potassium channel [2]): 44% | inhibition at 0.1 µM (hERG potassium channel [3]): 75.9%
